Assay results from the supplement of paper PMC11451515.

Tested on: SEM cells
Assay: cell viability relative to DMSO control; higher = less cytotoxic
Settings: 48 h
Method in brief: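 Leukemia cells (NOMO1 or SEM, 500 cells/well; P12-Ichikawa, 1000 cells/well) were seeded in 5 μl in 1536-well plates after at least four passages of adaptation to each medium. They received library compounds in DMSO by pin dosing, 11 threefold points from 47 μM to 0.79 nM. Luminescence with CellTiter-Glo One was read after 48 h at 37°C. Viability is stated per plate relative to DMSO wells, with cell-free wells as background.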

[1] = HPLM + 10% dialyzed FBS, 0.000781 µM
[2] = HPLM + 10% dialyzed FBS, 0.00234 µM
[3] = HPLM + 10% dialyzed FBS, 0.00702 µM
[4] = HPLM + 10% dialyzed FBS, 0.0211 µM
[5] = HPLM + 10% dialyzed FBS, 0.0632 µM
[6] = HPLM + 10% dialyzed FBS, 0.19 µM
[7] = HPLM + 10% dialyzed FBS, 0.569 µM
[8] = HPLM + 10% dialyzed FBS, 1.71 µM
[9] = HPLM + 10% dialyzed FBS, 5.12 µM
[10] = HPLM + 10% dialyzed FBS, 15.4 µM
[11] = HPLM + 10% dialyzed FBS, 46.1 µM
[12] = RPMI 5 mM glucose + 10% FBS, 0.000781 µM
[13] = RPMI 5 mM glucose + 10% FBS, 0.00234 µM
[14] = RPMI 5 mM glucose + 10% FBS, 0.00702 µM
[15] = RPMI 5 mM glucose + 10% FBS, 0.0211 µM
[16] = RPMI 5 mM glucose + 10% FBS, 0.0632 µM
[17] = RPMI 5 mM glucose + 10% FBS, 0.19 µM
[18] = RPMI 5 mM glucose + 10% FBS, 0.569 µM
[19] = RPMI 5 mM glucose + 10% FBS, 1.71 µM
[20] = RPMI 5 mM glucose + 10% FBS, 5.12 µM
[21] = RPMI 5 mM glucose + 10% FBS, 15.4 µM
[22] = RPMI 5 mM glucose + 10% FBS, 46.1 µM
[23] = RPMI 5 mM glucose + 10% dialyzed FBS, 0.000781 µM
[24] = RPMI 5 mM glucose + 10% dialyzed FBS, 0.00234 µM
[25] = RPMI 5 mM glucose + 10% dialyzed FBS, 0.00702 µM
[26] = RPMI 5 mM glucose + 10% dialyzed FBS, 0.0211 µM
[27] = RPMI 5 mM glucose + 10% dialyzed FBS, 0.0632 µM
[28] = RPMI 5 mM glucose + 10% dialyzed FBS, 0.19 µM
[29] = RPMI 5 mM glucose + 10% dialyzed FBS, 0.569 µM
[30] = RPMI 5 mM glucose + 10% dialyzed FBS, 1.71 µM
[31] = RPMI 5 mM glucose + 10% dialyzed FBS, 5.12 µM
[32] = RPMI 5 mM glucose + 10% dialyzed FBS, 15.4 µM
[33] = RPMI 5 mM glucose + 10% dialyzed FBS, 46.1 µM

| Structure (SMILES) | cell viability [1] [%] | cell viability [2] [%] | cell viability [3] [%] | cell viability [4] [%] | cell viability [5] [%] | cell viability [6] [%] | cell viability [7] [%] | cell viability [8] [%] | cell viability [9] [%] | cell viability [10] [%] | cell viability [11] [%] | cell viability [12] [%] | cell viability [13] [%] | cell viability [14] [%] | cell viability [15] [%] | cell viability [16] [%] | cell viability [17] [%] | cell viability [18] [%] | cell viability [19] [%] | cell viability [20] [%] | cell viability [21] [%] | cell viability [22] [%] | cell viability [23] [%] | cell viability [24] [%] | cell viability [25] [%] | cell viability [26] [%] | cell viability [27] [%] | cell viability [28] [%] | cell viability [29] [%] | cell viability [30] [%] | cell viability [31] [%] | cell viability [32] [%] | cell viability [33] [%] |
| --- | --- | --- | --- | --- | --- | --- | --- | --- | --- | --- | --- | --- | --- | --- | --- | --- | --- | --- | --- | --- | --- | --- | --- | --- | --- | --- | --- | --- | --- | --- | --- | --- | --- |
| CNC(=O)c1ccc(N2C(=S)N(c3cnc(C#N)c(C(F)(F)F)c3)C(=O)C23CCC3)cc1F | 92.3 | 88.8 | 80.1 | 103 | 76.8 | 95.6 | 105 | 98 | 107 | 101 | 95.2 | 83.9 | 94.1 | 90.7 | 93.6 | 97.1 | 92.7 | 94.8 | 101 | 98.3 | 98.6 | 93.9 | 82.6 | 95.3 | 85.3 | 91.5 | 114 | 100 | 97.8 | 98.2 | 96.8 | 93.3 | 108 |
| CC(C)(C)OC(=O)N[C@H]1CCCCC/C=C\[C@@H]2C[C@@]2(C(=O)N[S+](=O)([O-])C2CC2)NC(=O)[C@@H]2C[C@@H](OC(=O)N3Cc4cccc(F)c4C3)CN2C1=O | 71.4 | 83.9 | 83.5 | 75.7 | 97.3 | 89 | 92.1 | 79.8 | 84 | 86.6 | 80.2 | 96.1 | 99.7 | 84.5 | 73.4 | 102 | 88.9 | 101 | 103 | 93.4 | 90.2 | 85.4 | 85.2 | 91.9 | 93.4 | 105 | 94.9 | 98.5 | 121 | 115 | 93 | 91.6 | 81.3 |
